Molecular target: dipeptidyl peptidase (DPP-IV) (Homo sapiens, UniProt P27487)
Test: DPP-IV inhibitory activity (statement only)
Format: biochemical
Conditions: metabolite of compound (A); statement without data

Sequence of dipeptidyl peptidase (DPP-IV) (P27487 whole entry, species assumed): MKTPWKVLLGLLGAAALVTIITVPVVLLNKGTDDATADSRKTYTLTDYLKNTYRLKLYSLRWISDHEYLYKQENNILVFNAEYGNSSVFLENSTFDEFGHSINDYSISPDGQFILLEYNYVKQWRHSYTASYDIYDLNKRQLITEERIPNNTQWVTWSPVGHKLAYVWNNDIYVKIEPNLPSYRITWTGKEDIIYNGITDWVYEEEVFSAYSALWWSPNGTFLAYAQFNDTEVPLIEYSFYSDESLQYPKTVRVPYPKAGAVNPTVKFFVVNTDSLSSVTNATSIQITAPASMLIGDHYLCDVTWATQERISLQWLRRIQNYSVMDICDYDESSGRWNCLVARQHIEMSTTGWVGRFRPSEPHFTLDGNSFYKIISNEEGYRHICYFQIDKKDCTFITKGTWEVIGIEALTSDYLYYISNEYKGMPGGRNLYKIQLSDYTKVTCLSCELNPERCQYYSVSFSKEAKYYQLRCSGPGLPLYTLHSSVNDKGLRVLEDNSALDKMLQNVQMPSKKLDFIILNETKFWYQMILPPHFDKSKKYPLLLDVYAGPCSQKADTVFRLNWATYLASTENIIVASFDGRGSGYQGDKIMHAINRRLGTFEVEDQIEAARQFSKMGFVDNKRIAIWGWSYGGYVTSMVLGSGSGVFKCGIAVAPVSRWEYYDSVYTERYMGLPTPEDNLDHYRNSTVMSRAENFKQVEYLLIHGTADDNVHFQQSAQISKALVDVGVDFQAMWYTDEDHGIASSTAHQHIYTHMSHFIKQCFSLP

DPP-IV inhibitory activity: has a DPP-IV inhibitory activity
Compound: N#Cc1ccc(F)cc1Cn1c(N2CCC[C@@H](N)C2)cc(=O)[nH]c1=O
